According to ChEMBL document CHEMBL5370665, “Insight from Linker Investigations: Discovery of a Novel Phenylbenzothiazole Necroptosis Inhibitor Targeting Receptor-Interacting Protein Kinase 1 (RIPK1) from a Phenoxybenzothiazole Compound with Dual RIPK1/3 Targeting Activity” (J Med Chem, 2023):
Activity calls are given as the source filed them. The rule behind the calls is not given here.

Columns and labels:
Mus musculus [1] = experiment: Anti-inflammatory activity against C57BL/6J mouse model of TNFalpha-induced systemic inflammatory response syndrome (SIRS) assessed as decrease in IL-1beta level in heart at 1.25 to 5 mg/kg,po 2 hrs prior to mTNFalpha and z-VAD-FMK stimulation for 8 hrs by ELISA; format: functional, organism-based; settings: dose 1.25-5 mg/kg, time 10.0 hrs
Mus musculus [2] = experiment: Anti-inflammatory activity against C57BL/6J mouse model of TNFalpha-induced systemic inflammatory response syndrome (SIRS) assessed as decrease in […] IL-1beta level in heart at 1.25 to 5 mg/kg,po 2 hrs prior to mTNFalpha and z-VAD-FMK stimulation for 8 hrs by ELISA; format: functional, organism-based; settings: dose 1.25-5 mg/kg, time 10.0 hrs
[3] = Acute toxicity in mouse assessed as body weight loss at 100 to 200 mg/kg,IG and measured upto 14 days; format: organism-based; settings: in vivo, po, 336 h, dose 100-200 mg/kg, time < 14 day
[4] = target: T1, Mixed lineage kinase domain-like protein (Homo sapiens) (UniProt Q8NB16); experiment: Inhibition of MLKL phosphorylation in TSZ induced human HT-29 cells at 1 uM pretreated with compound followed by TSZ stimulation for 6 hrs by Western blot analysis; format: cell-based
T1 sequence (whole entry): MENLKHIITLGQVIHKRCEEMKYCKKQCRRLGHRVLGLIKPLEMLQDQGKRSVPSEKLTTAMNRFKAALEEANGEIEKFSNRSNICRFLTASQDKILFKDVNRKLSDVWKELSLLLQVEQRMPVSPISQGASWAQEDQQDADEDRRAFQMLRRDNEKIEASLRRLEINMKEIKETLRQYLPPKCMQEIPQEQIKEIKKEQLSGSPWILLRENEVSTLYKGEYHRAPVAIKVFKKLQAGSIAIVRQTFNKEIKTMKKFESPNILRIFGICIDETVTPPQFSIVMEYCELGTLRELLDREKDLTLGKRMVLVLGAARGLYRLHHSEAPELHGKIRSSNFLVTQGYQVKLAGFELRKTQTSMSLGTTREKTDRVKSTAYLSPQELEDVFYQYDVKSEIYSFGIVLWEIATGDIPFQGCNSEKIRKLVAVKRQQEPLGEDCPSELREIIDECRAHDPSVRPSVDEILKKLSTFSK

[5] = target: T2, Receptor-interacting serine/threonine-protein kinase 3 (Homo sapiens, UniProt Q9Y572); experiment: Binding affinity to recombinant RIPK3 (unknown origin) assessed as dissociation constant incubated for 1 hr by KINOMEscanTM assay
Target sequence in this assay (Q9Y572 whole entry): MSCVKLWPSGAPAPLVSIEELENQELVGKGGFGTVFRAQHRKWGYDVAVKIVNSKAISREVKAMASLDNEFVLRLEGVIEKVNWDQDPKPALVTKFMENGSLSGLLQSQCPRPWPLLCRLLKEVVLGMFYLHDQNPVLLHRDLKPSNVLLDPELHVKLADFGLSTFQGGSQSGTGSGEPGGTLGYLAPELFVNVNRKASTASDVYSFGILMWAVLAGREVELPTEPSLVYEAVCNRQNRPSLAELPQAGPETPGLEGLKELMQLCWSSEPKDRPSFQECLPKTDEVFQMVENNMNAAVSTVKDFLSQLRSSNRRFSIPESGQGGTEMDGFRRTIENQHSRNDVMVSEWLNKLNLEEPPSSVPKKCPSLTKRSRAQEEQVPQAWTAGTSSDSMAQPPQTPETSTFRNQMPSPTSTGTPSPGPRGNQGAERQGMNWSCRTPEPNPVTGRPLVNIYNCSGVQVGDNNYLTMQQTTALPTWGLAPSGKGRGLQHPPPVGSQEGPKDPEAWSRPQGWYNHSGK

Mus musculus [6] = experiment: Anti-inflammatory activity against C57BL/6J mouse model of TNFalpha-induced systemic inflammatory response syndrome (SIRS) assessed as decrease in IL-6 level in intestine at 1.25 to 5 mg/kg,po 2 hrs prior to mTNFalpha and z-VAD-FMK stimulation for 8 hrs by ELISA; format: functional, organism-based; settings: dose 1.25-5 mg/kg, time 10.0 hrs
Mus musculus [7] = experiment: Anti-inflammatory activity against C57BL/6J mouse model of TNFalpha-induced systemic inflammatory response syndrome (SIRS) assessed as increase in survival rate at 1.25 mg/kg,po 2 hrs prior to mTNFalpha and z-VAD-FMK stimulation and measured upto 24 hrs; format: functional; settings: time 26 hrs
L929 = experiment: Anti-necroptic activity against mouse L929 cells assessed as inhibition of […] (mouse TNFalpha, z-VAD-FMK) induced necroptosis at 15 to 500 nM pretreated with compound followed by TZ stimulation for 6 hrs by CellTiter-Glo Luminescent cell viability assay; format: functional, cell-based; settings: dose lower […], dose upper 500.0 nM
[8] = Cytotoxicity against human HT-29 cells assessed as reduction in cell viability incubated for 16 to 24 hrs by CellTiter-Glo Luminescent cell viability assay; format: toxicity, cell-based; settings: time 16-24 hrs
HT-29 = experiment: Anti-necroptic activity against human HT-29 cells assessed as inhibition of TSZ (TNFalpha, Smac mimetic and z-VAD-FMK) induced necroptosis pretreated with compound followed by TSZ stimulation for 16 to 18 hrs by CellTiter-Glo Luminescent cell viability assay; format: functional, cell-based
Mus musculus [9] = experiment: Anti-inflammatory activity against C57BL/6J mouse model of TNFalpha-induced systemic inflammatory response syndrome (SIRS) assessed as increase in survival rate at 2.5 mg/kg,po 2 hrs prior to mTNFalpha and z-VAD-FMK stimulation and measured upto 24 hrs; format: functional; settings: time 26 hrs
Mus musculus [10] = experiment: Anti-inflammatory activity against C57BL/6J mouse model of TNFalpha-induced systemic inflammatory response syndrome (SIRS) assessed as decrease in IL-1beta level in lung at 1.25 to 5 mg/kg,po 2 hrs prior to mTNFalpha and z-VAD-FMK stimulation for 8 hrs by ELISA; format: functional, organism-based; settings: dose 1.25-5 mg/kg, time 10.0 hrs
Mus musculus [11] = experiment: Anti-inflammatory activity against C57BL/6J mouse model of TNFalpha-induced systemic inflammatory response syndrome (SIRS) assessed as increase in body temperature at 5 mg/kg,po 2 hrs prior to mTNFalpha and z-VAD-FMK stimulation and measured upto 18 hrs by electric thermometer analysis; format: functional, organism-based; settings: time 20.0 hrs
[12] = Acute toxicity in mouse assessed as death at 100 to 200 mg/kg,IG and measured upto 14 days; format: organism-based; settings: in vivo, po, 336 h, dose 100-200 mg/kg, time < 14 day
Mus musculus [13] = experiment: Anti-inflammatory activity against C57BL/6J mouse model of TNFalpha-induced systemic inflammatory response syndrome (SIRS) assessed as decrease in IL-1beta level in brain at 1.25 to 5 mg/kg,po 2 hrs prior to mTNFalpha and z-VAD-FMK stimulation for 8 hrs by ELISA; format: functional, organism-based; settings: dose 1.25-5 mg/kg, time 10.0 hrs
Mus musculus [14] = experiment: Anti-inflammatory activity against C57BL/6J mouse model of TNFalpha-induced systemic inflammatory response syndrome (SIRS) assessed as decrease in IL-1beta level in liver at 1.25 to 5 mg/kg,po 2 hrs prior to mTNFalpha and z-VAD-FMK stimulation for 8 hrs by ELISA; format: functional, organism-based; settings: dose 1.25-5 mg/kg, time 10.0 hrs
Mus musculus [15] = experiment: Anti-inflammatory activity against C57BL/6J mouse model of TNFalpha-induced systemic inflammatory response syndrome (SIRS) assessed as decrease in serum IL-1beta level at 1.25 to 5 mg/kg,po 2 hrs prior to mTNFalpha and z-VAD-FMK stimulation for 8 hrs by ELISA; format: functional, organism-based; settings: dose 1.25-5 mg/kg, time 10.0 hrs
[16] = target: T2, Receptor-interacting serine/threonine-protein kinase 3; experiment: Inhibition of RIPK3 phosphorylation in TSZ induced human HT-29 cells at 1 uM pretreated with compound followed by TSZ stimulation for 6 hrs by Western blot analysis; format: cell-based
Target sequence in this assay (Q9Y572 whole entry, looked up): as the sequence (Q9Y572 whole entry) above

Mus musculus [17] = experiment: Anti-inflammatory activity against C57BL/6J mouse model of TNFalpha-induced systemic inflammatory response syndrome (SIRS) assessed as decrease in IL-6 level in spleen at 1.25 to 5 mg/kg,po 2 hrs prior to mTNFalpha and z-VAD-FMK stimulation for 8 hrs by ELISA; format: functional, organism-based; settings: dose 1.25-5 mg/kg, time 10.0 hrs
Mus musculus [18] = experiment: Anti-inflammatory activity against C57BL/6J mouse model of TNFalpha-induced systemic inflammatory response syndrome (SIRS) assessed as decrease in serum IL-6 level at 5 mg/kg,po 2 hrs prior to mTNFalpha and z-VAD-FMK stimulation for 8 hrs by ELISA; format: functional, organism-based; settings: time 10.0 hrs
Mus musculus [19] = experiment: Anti-inflammatory activity against C57BL/6J mouse model of TNFalpha-induced systemic inflammatory response syndrome (SIRS) assessed as decrease in IL-1beta level in intestine at 1.25 to 5 mg/kg,po 2 hrs prior to mTNFalpha and z-VAD-FMK stimulation for 8 hrs by ELISA; format: functional, organism-based; settings: dose 1.25-5 mg/kg, time 10.0 hrs
[20] = Acute toxicity in mouse assessed as pathological damage in spleen at 100 to 200 mg/kg,IG and measured after 14 days by H and E staining based microscopy; format: organism-based; settings: in vivo, po, 336 h, dose 100-200 mg/kg, time 14 day

For `O=C(Cc1cccc(OC(F)(F)F)c1)Nc1cc(-c2ccc3nc(NC(=O)C4CC4)sc3c2)ccc1F`, the Activity (Mus musculus [1]) was “inactive”, the Activity (Mus musculus [2]) was “Active” and the Activity [3] was “Non-Toxic”. For the same compound, the inhibition [4] was “Active”, the Kd [5] was > 5000 nM and the Activity (Mus musculus [6]) was “Dose-Dependent Effect”. For the same compound, the survival at 1.25 mg/kg (Mus musculus [7]) was 70%, the Activity (L929) was “Active” and the CC50 [8] was > 10000 nM. The EC50 (HT-29) was 17 nM, the survival at 2.5 mg/kg (Mus musculus [9]) was 80% and the Activity (Mus musculus [10]) was “Active”. The Activity (Mus musculus [11]) was “Active”, the Activity [12] was “Non-Toxic” and the Activity (Mus musculus [13]) was “inactive”. The Activity (Mus musculus [14]) was “inactive”, the Activity (Mus musculus [15]) was “Active” and the inhibition [16] was “Active”. The Activity (Mus musculus [17]) was “Dose-Dependent Effect”, the Activity (Mus musculus [18]) was “Active” and the Activity (Mus musculus [19]) was “Active”. The Activity [20] was “Non-Toxic”.
